Assay results published in patent publication US12540136B2, “Pyrrolopyridine derivative and use thereof” (ST PHARM CO., LTD., priority 2020, dated 2026).
Like-named read-outs stand apart in the source and are kept apart here.

Legend:
Format in all cases: cell-based
[1] = Cytotoxicity, MTS dye reduction assay; conditions: human; MT-4 cells, MTS dye reduction, 6 days incubation; read-out: CC50, HIV-1(NL4-3) in MT-4 Cells
Method: (§1) In order to determine the HIV-1 (Wild type) inhibitory effect of compounds of the present invention, a test was conducted as follows. The host cell was MT-4 cells and the virus strain was NL4-3 strain of HIV-1. The virus and cells were mixed in the presence of the compounds of the present invention, followed by incubation for 6 days. The antiviral effect was measured as a percentage decrease in viral cytopathic effect (CPE), and the cytotoxicity of the compounds was evaluated by MTS (CellTiter® 96 Reagent, Promega, Madison WI) dye reduction assay. 1.

HIV-1 (NL4-3) = assay: HIV-1 (wild type) inhibitory effect, decrease in viral cytopathic effect (CPE) in MT-4 cells; conditions: Human immunodeficiency virus 1, NL43, MT4, 144 h; NL4-3 strain, MT-4 host cells, 6 days incubation, CPE reduction
Method: as §1

MT-4 cells = assay: Cytotoxicity, MTS dye reduction assay
Method: as §1

| SMILES | CC50 at 6 days [1] [µM] | EC50 (HIV-1 (NL4-3)) [µM] | CC50 (MT-4 cells) [µM] | CC50 (MT-4 cells; MT-4 cells, MTS dye reduction, 6 days incubation, read-out: CC50, HIV-1(NL4-3) in MT-4 Cells) [µM] |
| --- | --- | --- | --- | --- |
| COCCOCCOC(=O)[C@@H](OC(C)(C)C)c1c(C)nc2c(c(C)c(C)n2Cc2cnn(C)c2)c1-c1ccc(Cl)cc1 [Example 16, 2-(2-Methoxyethoxy)ethyl (S)-2-(tert-butoxy)-2-(4-(4-chlorophenyl)-2,3,6-trimethyl-1-((1-methyl-1H-pyrazol-4-yl)methyl)-1H-pyrrolo[2,3-b]pyridin-5-yl)acetate] | > 10 | > 10 |  |  |
| Cc1nc2c(c(C)c(C)n2Cc2cnn(C)c2)c(-c2ccc(Cl)cc2)c1[C@H](OC(C)(C)C)C(N)=O [Example 5, (S)-2-(tert-butoxy)-2-(4-(4-chlorophenyl)-2,3,6-trimethyl-1-((1-methyl-1H-pyrazol-4-yl)methyl)-1H-pyrrolo[2,3-b]pyridin-5-yl)acetamide] | > 10 | > 10 |  |  |
| Cc1nc2c(c(C)c(C)n2CC2CCO2)c(-c2ccc(Cl)cc2)c1[C@H](OC(C)(C)C)C(=O)OCc1oc(=O)oc1C (stereo partly drawn) [Example 2, (5-Methyl-2-oxo-1,3-dioxol-4-yl)methyl (2S)-2-(tert-butoxy)-2-(4-(4-chlorophenyl)-2,3,6-trimethyl-1-(oxetan-2-ylmethyl)-1H-pyrrolo[2,3-b]pyridin-5-yl)acetate] | > 10 | 0.12 |  |  |
| Cc1nc2c(c(C)c(C)n2Cc2cnn(C)c2)c(-c2ccc(Cl)cc2)c1[C@H](OC(C)(C)C)C(=O)OCc1oc(=O)oc1C [Example 4, (5-Methyl-2-oxo-1,3-dioxol-4-yl)methyl (S)-2-(tert-butoxy)-2-(4-(4-chlorophenyl)-2,3,6-trimethyl-1-((1-methyl-1H-pyrazol-4-yl)methyl)-1H-pyrrolo[2,3-b]pyridin-5-yl)acetate] | > 10 | 0.00527 |  |  |
| COCCn1c(C)c(C)c2c(-c3ccc(Cl)cc3)c([C@H](OC(C)(C)C)C(=O)OCc3oc(=O)oc3C)c(C)nc21 [Example 3, (5-Methyl-2-oxo-1,3-dioxol-4-yl)methyl (S)-2-(tert-butoxy)-2-(4-(4-chlorophenyl)-1-(2-methoxyethyl)-2,3,6-trimethyl-1H-pyrrolo[2,3-b]pyridin-5-yl)acetate] | > 10 | 0.0227 |  |  |
| CONC(=O)[C@@H](OC(C)(C)C)c1c(C)nc2c(c(C)c(C)n2Cc2cnn(C)c2)c1-c1ccc(Cl)cc1 [Example 9, (S)-2-(tert-butoxy)-2-(4-(4-chlorophenyl)-2,3,6-trimethyl-1-((1-methyl-1H-pyrazol-4-yl)methyl)-1H-pyrrolo[2,3-b]pyridin-5-yl)-N-methoxyacetamide] | 8.89 |  |  |  |
| Cc1nc([C@@H](OC(C)(C)C)c2c(C)nc3c(c(C)c(C)n3Cc3cnn(C)c3)c2-c2ccc(Cl)cc2)no1 [Example 13, (S)-3-(tert-butoxy (4-(4-chlorophenyl)-2,3,6-trimethyl-1-((1-methyl-1-1H-pyrazol-4-yl)methyl)-1H-pyrrolo[2,3-b]pyridin-5-yl)methyl)-5-methyl-1,2,4-oxadiazole] |  |  | > 10 |  |
| Cc1nc2c(c(C)c(C)n2Cc2cnn(C)c2)c(-c2ccc(Cl)cc2)c1[C@H](OC(C)(C)C)C(=O)Nc1nn[nH]n1 [Example 14, (S)-2-(tert-butoxy)-2-(4-(4-chlorophenyl)-2,3,6-trimethyl-1-((1-methyl-1H-pyrazol-4-yl)methyl)-1H-pyrrolo[2,3-b]pyridin-5-yl)-N-(2H-tetrazol-5-yl)acetamide] | > 10 | > 10 |  |  |
| CNC(=O)[C@@H](OC(C)(C)C)c1c(C)nc2c(c(C)c(C)n2Cc2cnn(C)c2)c1-c1ccc(Cl)cc1 [Example 8, (S)-2-(tert-butoxy)-2-(4-(4-chlorophenyl)-2,3,6-trimethyl-1-((1-methyl-1H-pyrazol-4-yl)methyl)-1H-pyrrolo[2,3-b]pyridin-5-yl)-N-methylacetamide] | 4.98 |  |  |  |
| CCCCCCCCCCCCCOC(=O)[C@@H](OC(C)(C)C)c1c(C)nc2c(c(C)c(C)n2Cc2cnn(C)c2)c1-c1ccc(Cl)cc1 [Example 1, Tridecyl (S)-2-(tert-butoxy)-2-(4-(4-chlorophenyl)-2,3,6-trimethyl-1-((1-methyl-1H-pyrazol-4-yl)methyl)-1H-pyrrolo[2,3-b]pyridin-5-yl)acetate] | > 10 | > 10 |  |  |
| Cc1nc2c(c(C)c(C)n2Cc2cnn(C)c2)c(-c2ccc(Cl)cc2)c1[C@H](OC(C)(C)C)/C(N)=N/O [Example 12, (S,Z)-2-(tert-butoxy)-2-(4-(4-chlorophenyl)-2,3,6-trimethyl-1-((1-methyl-1H-pyrazol-4-yl)methyl)-1H-pyrrole[2,3-b]pyridin-5-yl)-N′-hydroxyacetimidamide] |  |  |  | > 10 |
| CON(C)C(=O)[C@@H](OC(C)(C)C)c1c(C)nc2c(c(C)c(C)n2Cc2cnn(C)c2)c1-c1ccc(Cl)cc1 [Example 10, (S)-2-(tert-butoxy)-2-(4-(4-chlorophenyl)-2,3,6-trimethyl-1-((1-methyl-1H-pyrazol-4-yl)methyl)-1H-pyrrolo[2,3-b]pyridin-5-yl)-N-methoxy-N-methylacetamide] | > 10 | > 10 |  |  |
| Cc1nc2c(c(C)c(C)n2Cc2cnn(C)c2)c(-c2ccc(Cl)cc2)c1[C@H](OC(C)(C)C)c1nnn[nH]1 [Example 7, (S)-5-(tert-butoxy(1H-tetrazol-5-yl)methyl)-4-(4-chlorophenyl)-2,3,6-trimethyl-1-((1-methyl-1H-pyrazol-4-yl)methyl)-1H-pyrrolo[2,3-b]pyridine] | > 10 | 0.361 |  |  |
| COC(=O)OCOC(=O)[C@@H](OC(C)(C)C)c1c(C)nc2c(c(C)c(C)n2Cc2cnn(C)c2)c1-c1ccc(Cl)cc1 [Example 15, ((Methoxycarbonyl)oxy)methyl (S)-2-(tert-butoxy)-2-(4-(4-chlorophenyl)-2,3,6-trimethyl-1-((1-methyl-1H-pyrazol-4-yl)methyl)-1H-pyrrolo[2,3-b]pyridin-5-yl)acetate] | > 10 | 0.0316 |  |  |
| Cc1nc2c(c(C)c(C)n2Cc2cnn(C)c2)c(-c2ccc(Cl)cc2)c1[C@H](OC(C)(C)C)C(=O)NO [Example 11, (S)-2-(tert-butoxy)-2-(4-(4-chlorophenyl)-2,3,6-trimethyl-1-((1-methyl-1H-pyrazol-4-yl)methyl)-1H-pyrrolo[2,3-b]pyridin-5-yl)-N-hydroxyacetamide] | 3.16 |  |  |  |
| Cc1nc2c(c(C)c(C)n2Cc2cnn(C)c2)c(-c2ccc(Cl)cc2)c1[C@@H](C#N)OC(C)(C)C [Example 6, (S)-2-(tert-butoxy)-2-(4-(4-chlorophenyl)-2,3,6-trimethyl-1-((1-methyl-1H-pyrazol-4-yl)methyl)-1H-pyrrolo[2,3-b]pyridin-5-yl)acetonitrile] | > 10 | > 10 |  |  |
